The NIST ThermoML archive (doi:10.1021/je301084m)

Assay: wn = mass fraction of the nth substance listed
Conditions: 101 kPa, Liquid; for viscosity: Capillary tube (Ostwald / Ubbelohde) method; for mass density: Pycnometric method

O=[N+]([O-])[O-].[Li+] [lithium nitrate] + O
Conditions | mass density [kg/m3] | viscosity [mPa·s]
283.15 K, w1 = 0.3 | 1203 | 2.41
293.15 K, w1 = 0.3 | 1199 | 1.902
293.15 K, w1 = 0.35 | 1236 | 2.241
293.15 K, w1 = 0.4 | 1274 | 2.791
303.15 K, w1 = 0.3 | 1193 | 1.535
303.15 K, w1 = 0.35 | 1231 | 1.85
303.15 K, w1 = 0.4 | 1269 | 2.24
303.15 K, w1 = 0.45 | 1314 | 2.87
303.15 K, w1 = 0.5 | 1358 | 3.839
303.15 K, w1 = 0.55 | 1405 | 5.357
313.15 K, w1 = 0.3 | 1188 | 1.3
313.15 K, w1 = 0.35 | 1225 | 1.552
313.15 K, w1 = 0.4 | 1263 | 1.888
313.15 K, w1 = 0.45 | 1307 | 2.363
313.15 K, w1 = 0.5 | 1352 | 3.114
313.15 K, w1 = 0.55 | 1398 | 4.299
313.15 K, w1 = 0.6 | 1449 | 6.274
323.15 K, w1 = 0.3 | 1179 | 1.112
323.15 K, w1 = 0.35 | 1216 | 1.306
323.15 K, w1 = 0.4 | 1257 | 1.58
323.15 K, w1 = 0.45 | 1300 | 1.994
323.15 K, w1 = 0.5 | 1346 | 2.543
323.15 K, w1 = 0.55 | 1391 | 3.515
323.15 K, w1 = 0.6 | 1440 | 4.961
333.15 K, w1 = 0.3 | 1173 | 0.95
333.15 K, w1 = 0.35 | 1210 | 1.134
333.15 K, w1 = 0.4 | 1250 | 1.356
333.15 K, w1 = 0.45 | 1293 | 1.7
333.15 K, w1 = 0.5 | 1339 | 2.143
333.15 K, w1 = 0.55 | 1384 | 2.926
333.15 K, w1 = 0.6 | 1432 | 4.153
333.15 K, w1 = 0.65 | 1494 | 5.721
343.15 K, w1 = 0.3 | 1166 | 0.826
343.15 K, w1 = 0.35 | 1203 | 0.985
343.15 K, w1 = 0.4 | 1243 | 1.182
343.15 K, w1 = 0.45 | 1286 | 1.479
343.15 K, w1 = 0.5 | 1331 | 1.854
343.15 K, w1 = 0.55 | 1376 | 2.493
343.15 K, w1 = 0.6 | 1424 | 3.472
343.15 K, w1 = 0.65 | 1486 | 4.764
353.15 K, w1 = 0.3 | 1159 | 0.731
353.15 K, w1 = 0.35 | 1196 | 0.864
353.15 K, w1 = 0.4 | 1236 | 1.041
353.15 K, w1 = 0.45 | 1279 | 1.302
353.15 K, w1 = 0.5 | 1324 | 1.616
353.15 K, w1 = 0.55 | 1369 | 2.158
353.15 K, w1 = 0.6 | 1416 | 2.955
353.15 K, w1 = 0.65 | 1479 | 4.02
363.15 K, w1 = 0.3 | 1152 | 0.65
363.15 K, w1 = 0.35 | 1189 | 0.773
363.15 K, w1 = 0.4 | 1230 | 0.927
363.15 K, w1 = 0.45 | 1272 | 1.149
363.15 K, w1 = 0.5 | 1317 | 1.466
363.15 K, w1 = 0.55 | 1361 | 1.882
363.15 K, w1 = 0.6 | 1408 | 2.564
363.15 K, w1 = 0.65 | 1472 | 3.394
373.15 K, w1 = 0.3 | 1144 | 0.586
373.15 K, w1 = 0.35 | 1181 | 0.7
373.15 K, w1 = 0.4 | 1222 | 0.837
373.15 K, w1 = 0.45 | 1265 | 1.034
373.15 K, w1 = 0.5 | 1309 | 1.306
373.15 K, w1 = 0.55 | 1353 | 1.693
373.15 K, w1 = 0.6 | 1400 | 2.248
373.15 K, w1 = 0.65 | 1464 | 2.953
383.15 K, w1 = 0.4 | 1213 | 0.763
383.15 K, w1 = 0.45 | 1258 | 0.938
383.15 K, w1 = 0.5 | 1301 | 1.175
383.15 K, w1 = 0.55 | 1346 | 1.505
383.15 K, w1 = 0.6 | 1393 | 1.993
383.15 K, w1 = 0.65 | 1456 | 2.615
393.15 K, w1 = 0.5 | 1294 | –
393.15 K, w1 = 0.55 | 1338 | 1.371
393.15 K, w1 = 0.6 | 1385 | 1.785
393.15 K, w1 = 0.65 | 1448 | 2.307
403.15 K, w1 = 0.6 | 1377 | 1.625
403.15 K, w1 = 0.65 | 1440 | 2.095
413.15 K, w1 = 0.65 | 1430 | 1.923
